From paper PMC2637266, “Quantification of gamma-secretase modulation differentiates inhibitor compound selectivity between two substrates Notch and amyloid precursor protein” (Molecular Brain, 2008)
Like-named read-outs stand apart in the source and are kept apart here.

Experiments:
NICD generation = system: NICD generation; design: method as in PMID 15319485; details: found as low as; read-out: IC50 for NICD generation in cultured cells; cited from earlier work
Aβ generation = system: Aβ generation; design: method as in PMID 10915801; details: found as low as; read-out: IC50 for Aβ generation in cultured cells; cited from earlier work
[1] = target: T1, γ-secretase cleavage of APP (Homo sapiens, UniProt P49768); assay: Aβ ELISA from HEK293 cells transiently transfected with APP; assay type: cell-based
T1 construct: endogenous in cells; host or cells: HEK293 stably expressing Swedish mutant human APP695, transiently transfected with NotchΔE
Excerpt: (§1) Two cDNA constructs expressing chimeric APP and Notch were previously reported to generate chimeric "Notch-Aβ-like" (Nβ*) peptide. One construct has its transmembrane domain (TMD) replaced by the Notch TMD (APP-m-NOTCH) and the other with the juxtamembrane portion of the APP ectodomain (the α-secretase cleavage region) replaced by the corresponding sequence in Notch (APP-α-NOTCH). Taking advantage of different combinations of ELISA antibodies (see Methods), effects of cpd E on the generation of Aβ and Nβ* peptides from these chimeric APP-Notch substrates were quantified by ELISA.
(§2) Individual construct APP, APP-α-Notch or APP-m-Notch was transiently transfected into HEK293 cells. These chimeric protein expressing cells were treated with cpd E, and the levels of Aβ and Nβ* were measured by ELISA. […] Similar results were obtained when m-Notch was expressed in HEK293 cells. At least two magnitude of difference was observed, with EC50 for cpd E was […], compared to EC50 for Nβ* at ~1 nM (Fig. 3B).
(§3) Figure 3 Generation of Aβ and Nβ* from chimeric APP-Notch expressing cells. […] Levels of Nβ* in the media from cells expressing APP-α-Notch (dotted line) and levels of Aβ from APP expressing cells (solid line) were determined by ELISA. […] Levels of Aβ (solid line) and Nβ* (dotted line) were determined by ELISA. […]

[2] = system: brain cortical γ-secretase; design: method as in PMID 15857627; details: guinea pig; cited from earlier work
[3] = target: T2, γ-secretase cleavage of chimeric APP-m-NOTCH (Homo sapiens, UniProt P49768); assay: Nβ* ELISA from HEK293 cells expressing APP-m-Notch; assay type: cell-based
T2 construct: endogenous in cells; host or cells: HEK293 transiently transfected with APP-m-Notch
Excerpt: as §1, §2, §3

γ-secretase = details: read-out: IC50 for de novo Aβ and AICD generation in vitro; cited from earlier work
brain Aβ = system: brain Aβ; design: method as in PMID 11145990; details: transgenic mouse, human familial AD linked V717F APP; cited from earlier work
zebrafish embryos = system: zebrafish embryos; design: method as in PMID 12101103; details: treatment at late blastula stage; cited from earlier work
[4] = system: γ-secretase, NICD generation; design: method as in PMID 16236717; details: 50 nM; cited from earlier work
[5] = system: γ-secretase, AICD generation; design: method as in PMID 16236717; details: 100 nM; cited from earlier work

SMILES | IC50 (NICD generation) | IC50 (Aβ generation) | EC50 ([1]; EC for inhibiting 50% of Aβ production, APP expressing HEK293, α-Notch experiment, Fig. 3A) | EC50 ([1]; HEK293, m-Notch experiment, Fig. 3B, read-out: EC50 for APP (Aβ)) | brain cortical γ-secretase activity [2] | plasma, CSF and brain Aβ levels [2] | EC50 [3] | IC50 (γ-secretase) | brain Aβ (brain Aβ) | zebrafish somitogenesis and neurogenesis (zebrafish embryos) | inhibition of NICD generation in vitro [4] | inhibition of AICD generation in vitro [5]
C[C@H](NC(=O)Cc1cc(F)cc(F)c1)C(=O)N[C@H]1N=C(c2ccccc2)c2ccccc2N(C)C1=O [cpd E, (S,S)-2-[2-(3,5-Difluorophenyl)-acetylamino]-N-(1-methyl-2-oxo-5-phenyl-2,3-dihydro-1H-benzo [e] [1,4]diazepin-3-yl)-propionamide] | 1.7 nM | 0.3 nM | < 0.1 nM | ~0.03 nM | dose-dependent inhibition of brain cortical γ-secretase activity | decreases in plasma, CSF and brain Aβ levels | ~1 nM |  |  |  |  | 
C[C@H](NC(=O)Cc1cc(F)cc(F)c1)C(=O)N[C@H](C(=O)OC(C)(C)C)c1ccccc1 [DAPT, N-[N-(3,5-Difluorophenacetyl-L-alanyl)]-S-phenylglycine t-Butyl Ester] |  |  |  |  |  |  |  | 10 to 100 nM | dose-dependent, acute decrease in brain Aβ | caused defects in somitogenesis and neurogenesis | partial inhibition | partial inhibition
